These molecules were tested against T1, human LTA4 hydrolase (Homo sapiens, UniProt P09960) (assay: LTA4H Enzyme assay (cleavage of Arg-AMC, fluorescence)). Settings: LTA4H Enzyme 1 nM, Arg-AMC substrate 50 μM, room temperature 1 h, fluorescence; read-out: IC50 values of LTA4H Enzyme assay.
T1 sequence (P09960 1-611): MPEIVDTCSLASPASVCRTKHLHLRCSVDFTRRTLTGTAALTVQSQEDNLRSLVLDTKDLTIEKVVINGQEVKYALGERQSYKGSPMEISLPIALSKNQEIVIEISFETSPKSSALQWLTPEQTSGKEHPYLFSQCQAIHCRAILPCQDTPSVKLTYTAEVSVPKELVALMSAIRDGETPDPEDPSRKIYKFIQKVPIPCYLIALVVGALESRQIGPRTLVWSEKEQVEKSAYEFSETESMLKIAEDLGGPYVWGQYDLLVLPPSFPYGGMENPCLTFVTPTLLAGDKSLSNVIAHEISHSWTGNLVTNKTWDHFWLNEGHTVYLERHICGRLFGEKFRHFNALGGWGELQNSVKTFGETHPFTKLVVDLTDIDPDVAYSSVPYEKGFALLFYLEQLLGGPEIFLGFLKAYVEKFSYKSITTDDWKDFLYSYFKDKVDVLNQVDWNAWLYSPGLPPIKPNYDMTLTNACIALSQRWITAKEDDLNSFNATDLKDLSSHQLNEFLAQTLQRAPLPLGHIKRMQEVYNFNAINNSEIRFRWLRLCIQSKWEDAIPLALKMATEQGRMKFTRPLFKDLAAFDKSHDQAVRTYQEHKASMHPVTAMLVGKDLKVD
Assay type: biochemical
Outline: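 Aminomethylcoumarin release measured fluorimetrically (380/460 nm) after 1 h at room temperature. Reaction: 1 nM final enzyme, 50 μM final Arg-AMC and compound in Tris-HCl pH 7.5 with 100 mM KCl and 0.5% BSA.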
Work on `CC(=O)N1CCC(NCc2ccc([C@H]3COc4cccnc4O3)cc2)CC1` [Example 153, 1-[4-({4-[(3S)-2,3-dihydro[1,4]dioxino[2,3-b]pyridin-3-yl]benzyl}amino)piperidin-1-yl]ethanone] yielded an IC50 of 0.82 nM. `O=C(NCCO)C1CCN(Cc2ccc([C@H]3COc4cccnc4O3)cc2)CC1` [Example 154, 1-{4-[(3S)-2,3-dihydro[1,4]dioxino[2,3-b]pyridin-3-yl]benzyl}-N-(2-hydroxyethyl)piperidine-4-carboxamide] was tested, and the IC50 was 0.2 nM. For `CC(C)(CN1CCCC1)NCc1ccc([C@H]2COc3cccnc3O2)cc1` [Example 157, N-{4-[(3S)-2,3-dihydro[1,4]dioxino[2,3-b]pyridin-3-yl]benzyl}-2-methyl-1-(pyrrolidin-1-yl)propan-2-amine], the IC50 was 0.18 nM. Molecule `N#CC1CCN(Cc2ccc([C@H]3COc4cccnc4O3)cc2)CC1` [Example 159, 1-{4-[(3S)-2,3-dihydro[1,4]dioxino[2,3-b]pyridin-3-yl]benzyl}piperidine-4-carbonitrile] has an IC50 of 0.16 nM. In the case of `O=S1(=O)CCN(Cc2ccc([C@H]3COc4cccnc4O3)cc2)CC1` [Example 161, (3S)-3-{4-[(1,1-dioxidothiomorpholin-4-yl)methyl]phenyl}-2,3-dihydro[1,4]dioxino[2,3-b]pyridine], the IC50 is reported as 0.41 nM. `O=C(C1CCN(Cc2ccc([C@H]3COc4cccnc4O3)cc2)CC1)N1CCOCC1` [Example 162, (1-{4-[(3S)-2,3-dihydro[1,4]dioxino[2,3-b]pyridin-3-yl]benzyl}piperidin-4-yl)(morpholin-4-yl)methanone] was tested, and the IC50 was 0.14 nM. Work on `O=C1CCCN1CC1CCCN(Cc2ccc([C@H]3COc4cccnc4O3)cc2)C1` (stereo partly drawn) [Example 163, 1-[(1-{4-[(3S)-2,3-dihydro[1,4]dioxino[2,3-b]pyridin-3-yl]benzyl}piperidin-3-yl)methyl]pyrrolidin-2-one] yielded an IC50 of 0.17 nM. `O=C1NC(=O)C2(CCN(Cc3ccc([C@H]4COc5cccnc5O4)cc3)CC2)N1` [Example 165, 8-{4-[(3S)-2,3-dihydro[1,4]dioxin[2,3-b]pyridin-3-yl]benzyl}-1,3,8-triazaspiro[4.5]decane-2,4-dione] was tested, and the IC50 was 0.13 nM. `COC1CN(Cc2ccc([C@H]3COc4cccnc4O3)cc2)C1` [Example 166, (3S)-3-{4-[(3-methoxyazetidin-1-yl)methyl]phenyl}-2,3-dihydro[1,4]dioxino[2,3-b]pyridine] was tested, and the IC50 was 0.68 nM. `CS(=O)(=O)N1CCC(NCc2ccc([C@H]3COc4cccnc4O3)cc2)CC1` [Example 167, N-{4-[(3S)-2,3-dihydro[1,4]dioxino[2,3-b]pyridin-3-yl]benzyl}-1-(methylsulfonyl)piperidin-4-amine] showed an IC50 of 0.27 nM. Molecule `CN(Cc1ccc([C@H]2COc3cccnc3O2)cc1)C1CCN(S(C)(=O)=O)CC1` [Example 169, N-{4-[(3S)-2,3-dihydro[1,4]dioxino[2,3-b]pyridin-3-yl]benzyl}-N-methyl-1-(methylsulfonyl)piperidin-4-amine] has an IC50 of 0.33 nM. Molecule `COCCOC1CCN(Cc2ccc([C@H]3COc4cccnc4O3)cc2)CC1` [Example 170, (3S)-3-(4-{[4-(2-methoxyethoxy)piperidin-1-yl]methyl}phenyl)-2,3-dihydro[1,4]dioxino[2,3-b]pyridine] has an IC50 of 0.47 nM. Molecule `CN(C)C(=O)CC1CCN(Cc2ccc([C@H]3COc4cccnc4O3)cc2)CC1` [Example 171, 2-(1-{4-[(3S)-2,3-dihydro[1,4]dioxino[2,3-b]pyridin-3-yl]benzyl}piperidin-4-yl)-N,N-dimethylacetamide] has an IC50 of 0.45 nM. `CS(=O)(=O)C1CCN(Cc2ccc([C@H]3COc4cccnc4O3)cc2)CC1` [Example 172, (3S)-3-(4-{[4-(methylsulfonyl)piperidin-1-yl]methyl}phenyl)-2,3-dihydro[1,4]dioxin[2,3-b]pyridine] was tested, and the IC50 was 0.53 nM. `CS(=O)(=O)NC1CCN(Cc2ccc([C@H]3COc4ccccc4O3)cc2)CC1` [Example 176, N-(1-{4-[(2S)-2,3-dihydro-1,4-benzodioxin-2-yl]benzyl}piperidin-4-yl)methanesulfonamide] gave an IC50 of 0.24 nM. For `N#CC1CCN(Cc2ccc([C@H]3COc4ccccc4O3)cc2)CC1` [Example 177, 1-{4-[(2S)-2,3-dihydro-1,4-benzodioxin-2-yl]benzyl}piperidine-4-carbonitrile], the IC50 was 1.45 nM. Work on `CNC(=O)C1CCN(Cc2ccc([C@H]3COc4ccccc4O3)cc2)CC1` [Example 179, 1-{4-[(2S)-2,3-dihydro-1,4-benzodioxin-2-yl]benzyl}-N-methylpiperidine-4-carboxamide] yielded an IC50 of 0.16 nM. Work on `O=C(C1CCN(Cc2ccc([C@H]3COc4ccccc4O3)cc2)CC1)N1CCOCC1` [Example 180, (1-{4-[(2S)-2,3-dihydro-1,4-benzodioxin-2-yl]benzyl}piperidin-4-yl)(morpholin-4-yl)methanone] yielded an IC50 of 0.12 nM. Molecule `O=C(O)CCCC1CCN(Cc2ccc([C@H]3COc4ccccc4O3)cc2)CC1` [Example 181, 4-(1-{4-[(2S)-2,3-dihydro-1,4-benzodioxin-2-yl]benzyl}piperidin-4-yl)butanoic acid] has an IC50 of 0.042 nM. `O=C(O)C[C@H]1CCCN(Cc2ccc([C@H]3COc4ccccc4O3)cc2)C1` [Example 182, [(3R)-1-{4-[(2S)-2,3-dihydro-1,4-benzodioxin-2-yl]benzyl}piperidin-3-yl]acetic acid] gave an IC50 of 0.29 nM. Molecule `O=C(O)C[C@H]1CCN(Cc2ccc([C@H]3COc4ccccc4O3)cc2)C1` [Example 184, [(3R)-1-{4-[(2S)-2,3-dihydro-1,4-benzodioxin-2-yl]benzyl}pyrrolidin-3-yl]acetic acid] has an IC50 of 0.11 nM. `CS(=O)(=O)N1CCN(Cc2ccc([C@H]3COc4cccnc4O3)cc2)CC1` [Example 188, (3S)-3-(4-{[4-(methylsulfonyl)piperazin-1-yl]methyl}phenyl)-2,3-dihydro[1,4]dioxino[2,3-b]pyridine] showed an IC50 of 0.87 nM. `O=C(O)C1CCN(Cc2ccc([C@H]3COc4cccnc4O3)cc2)CC1` [Example 189, 1-{4-[(3S)-2,3-dihydro[1,4]dioxino[2,3-b]pyridin-3-yl]benzyl}piperidine-4-carboxylic acid] gave an IC50 of 0.16 nM. `O=C(O)[C@H]1CC[C@@H](NCc2ccc([C@H]3COc4ccccc4O3)cc2)C1` [Example 191, (1S,3R)-3-({4-[(2S)-2,3-dihydro-1,4-benzodioxin-2-yl]benzyl}amino)cyclopentane-carboxylic acid] gave an IC50 of 1.62 nM. Molecule `O=C(O)C1CCN(Cc2ccc([C@@H]3COc4ccccc4O3)cc2)CC1` [Example 201, (R)-1-[4-(2,3-Dihydro-benzo[1,4]dioxin-2-yl)-benzyl]-piperidine-4-carboxylic acid] has an IC50 of 1.59 nM. `Fc1ccc2c(c1)OC(c1ccc(CN3CCOCC3)cc1)CO2` (stereo not drawn) [Example 202, 4-[4-(7-Fluoro-2,3-dihydro-benzo[1,4]dioxin-2-yl)-benzyl]-morpholine] gave an IC50 of 23.4 nM. `Fc1ccc2c(c1)OC(c1ccc(CN3CCCC3)cc1)CO2` (stereo not drawn) [Example 203, 1-[4-(7-Fluoro-2,3-dihydro-benzo[1,4]dioxin-2-yl)-benzyl]-pyrrolidine] was tested, and the IC50 was 2.94 nM. Work on `c1cnc2c(c1)OC[C@@H](c1ccc(CN3CCOCC3)cc1)O2` [Example 205, (R)-3-(4-Morpholin-4-ylmethyl-phenyl)-2,3-dihydro-[1,4]dioxino[2,3-b]pyridine] yielded an IC50 of 27.5 nM. In the case of `NC(=O)C1CCN(Cc2ccc([C@H]3COc4cccnc4O3)cc2)CC1` [Example 206, 1-{4-[(3S)-2,3-dihydro[1,4]dioxino[2,3-b]pyridin-3-yl]benzyl}piperidine-4-carboxamide], the IC50 is reported as 0.19 nM. `NC(=O)C1CCN(Cc2ccc([C@@H]3COc4cccnc4O3)cc2)CC1` [Example 207, 1-{4-[(3R)-2,3-dihydro[1,4]dioxino[2,3-b]pyridin-3-yl]benzyl}piperidine-4-carboxamide] showed an IC50 of 0.86 nM. For `O=C1CCCN1Cc1ccc(C2COc3cccnc3O2)cc1` (stereo not drawn) [Example 208, 11-[4-(2,3-dihydro-[1,4]dioxino[2,3-b]pyridin-3-yl)-benzyl]-pyrrolidin-2-one], the IC50 was 21.4 nM. Molecule `O=C1OCCN1Cc1ccc(C2COc3cccnc3O2)cc1` (stereo not drawn) [Example 209, 3-[4-(2,3-dihydro[1,4]dioxino[2,3-b]pyridin-3-yl)benzyl]-1,3-oxazolidin-2-one] has an IC50 of 12.4 nM. `NCc1ccc(C2COc3cccnc3O2)cc1` (stereo not drawn) [Example 210, 4-(2,3-Dihydro-[1,4]dioxino[2,3-b]pyridin-3-yl)-benzylamine] was tested, and the IC50 was 19 nM. `CC1(C(=O)O)CCN(Cc2ccc([C@H]3COc4ccccc4O3)cc2)CC1` [Example 211, 1-[(S)-4-(2,3-Dihydro-benzo[1,4]dioxin-2-yl)-benzyl]-4-methyl-piperidine-4-carboxylic acid] gave an IC50 of 0.69 nM. `C[C@H]1CN(Cc2ccc([C@H]3COc4ccccc4O3)cc2)CC[C@H]1C(=O)O` [Example 212] gave an IC50 of 0.49 nM. `O=C(O)C1(F)CCN(Cc2ccc([C@H]3COc4ccccc4O3)cc2)CC1` [Example 213, 1-{4-[(2S)-2,3-dihydro-1,4-benzodioxin-2-yl]benzyl}-4-fluoropiperidine-4-carboxylic acid] was tested, and the IC50 was 0.81 nM.

— patent publication US8946203B2, “Benzodioxane inhibitors of leukotriene production” (Boehringer Ingelheim International GmbH, priority 2012, dated 2015)
